Laboratory results reported in patent US20230330020A1, “MEDICATION THAT PROTECTS THE INTESTINAL MICROBIOTA AND THEIR PREPARATION METHODS AND APPLICATIONS” (priority 2020, published 2023).

Experiments:
[1] = tested on: ampicillin resistance gene ampC; assay: Real-time quantitative PCR of resistance gene ampC and total bacterial 16S rRNA in fecal DNA; type: in vivo, mice; conditions: oral 20 mg kg^-1 once a day 5 days; feces; vs control
Method: We orally administered PGNPs-encapsulated ampicillin and free ampicillin to 6-8 weeks old mice for 5 consecutive days, once a day, while the control group was not given any ampicillin treatment. At specific time points during and after the antibiotic treatment period, we collected fecal samples from the mice, extracted DNA, determined DNA concentration, diluted to 10 ng μL^−1, and analyzed the copy number of the ampicillin resistance gene ampC using real-time fluorescence quantitative PCR.
Mice were divided into four groups, with 6 mice in each group. The control group was not treated with antibiotics, while the experimental group was given free antibiotics or antibiotics encapsulated in PGNPs prepared as described above. The experimental group mice were orally administered ampicillin (20 mg kg^−1) and PGNPs- encapsulated ampicillin once a day for 5 consecutive days. At specific time points, mouse feces were collected, and total DNA was extracted from fecal samples, and the concentration was measured. Real-time quantitative PCR was used to amplify the ampicillin resistance gene ampC and the total bacterial 16S rRNA in fecal DNA, and the copy numbers of the two genes were calculated to determine the effect of the two different antibiotic treatments on the abundance of antibiotic-resistant bacteria in the gut.

Streptococcus pneumoniae = assay: Mouse pneumonia induced by intranasal Streptococcus pneumoniae, oral treatment; type: in vivo, mice
Method: In one implementation, the effectiveness of orally administered ampicillin wrapped in PGNPs for treating mouse pneumonia was validated. Firstly, we induced mouse pneumonia by intranasally administering Streptococcus pneumoniae. At 2 and 8 hours post-induction, the mice received either ampicillin encapsulated in PGNPs or free ampicillin treatment. At 24 hours post-infection, the number of Streptococcus pneumoniae in the mouse lungs and the proportion of neutrophil infiltration were analyzed.
Mice were divided into four groups, with two control groups receiving no ampicillin treatment and two treatment groups receiving ampicillin treatment after infection, with at least 3 mice per group. Mouse pneumonia was induced by intranasal inoculation of 3×10^8 CFUs of Streptococcus pneumoniae. After infection, mice were orally treated with either free ampicillin or PGNPs encapsulated with ampicillin (40 mg kg^−1) at 2 hours and 8 hours post-infection. After 24 hours of infection, the number of Streptococcus pneumoniae in the lungs was measured. Mouse lung tissues were collected and homogenized in sterile PBS, diluted 10-fold in PBS, and plated for colony counting. The proportion of neutrophil infiltration in the lungs of the mice was determined by staining the lung tissues with antibodies and analyzing with a flow cytometer.

[2] = Loading rate (encapsulation efficiency) of antibiotics in PGNPs by double emulsion, single emulsion and dialysis; type: physicochemical; conditions: hydrophobic antibiotics; Gluc-PEG-PLGA + cationic lipid
Source text: In one implementation, we used a double-emulsification method to encapsulate hydrophilic antibiotics such as ampicillin and erythromycin, and measured an encapsulation efficiency of 50%-60%. Using a dialysis method, we encapsulated hydrophobic antibiotics such as metronidazole and achieved an encapsulation efficiency of 25%. Encapsulation of hydrophobic antibiotics such as metronidazole using a single-emulsification method yielded an encapsulation efficiency of 20%-40%. Various types of antibiotics with different properties can be encapsulated in nanoparticles using methods such as single-emulsification, double-emulsification, and dialysis, as shown in FIG. 3. The double-emulsification method yielded the highest encapsulation efficiency for hydrophilic antibiotics.
For hydrophilic antibiotics, such as ampicillin and vancomycin, the double emulsion method was used for loading. A water-soluble solution (100 mg mL^−1, 30 μL) of either ampicillin or vancomycin was added to 0.5 mL of dichloromethane containing 0.5 mg DOTAP and 5 mg glucose-PEG-PLGA. […] The concentration of the loaded antibiotics in the nanoparticles was measured using a UV spectrophotometer or HPLC. The loading rate was calculated by dividing the mass of loaded antibiotics by the total mass of antibiotics used for loading. […]

[3] = 40 mg kg^-1 oral at 2 h and 8 h post-infection, 24 h, vs untreated group

encapsulation efficiency, dialysis method [2]	SMILES	copy number of gut bacterial resistance gene ampC [1]	neutrophil proportion in the lungs (Streptococcus pneumoniae; [3])	number of lung Streptococcus pneumoniae (Streptococcus pneumoniae; [3])	therapeutic effect on mouse pneumonia (Streptococcus pneumoniae; oral at 2 and 8 hours post-induction, analysed at 24 hours)
–	CC1(C)S[C@@H]2[C@H](NC(=O)[C@H](N)c3ccccc3)C(=O)N2[C@H]1C(=O)O [Free-Amp, ampicillin]	increased sharply over time	significant decrease	significant decrease	good therapeutic effects
25%	Cc1ncc([N+](=O)[O-])n1CCO [metronidazole]	–	–	–	–
